Among the data in PubChem BioAssay (NCI) are GI50 and TGI values, retold here.

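96-well plates; 48 h exposure; 5 concentrations. Endpoints by linear interpolation between flanking doses. Not reached: highest tested concentration assigned. At the GI50, growth is halved. TGI: total growth inhibition.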

Experiment in all cases: NCI-60 cell line screen, 48 h
For assay [1], the system named is IGROV1 ovarian.
Assay [2] deals with SNB-19 CNS.
Assay [3] concerns UO-31 renal.
Assay [4] has as its system OVCAR-8 ovarian.
Assay [5] concerns SK-MEL-28 melanoma.
Assay [6] concerns SN12C renal.
The subject of assay [7] is HOP-62 NSCLC.
Assay [8] concerns HCT-116 colon.
Assay [9] has as its system TK-10 renal.
Assay [10] concerns KM12 colon.

For `Nc1nc(Cl)nc2c1ncn2C1OC(CO)C(O)C1O` (stereo not given), the GI50 in assay [1] was greater than 100 µM; in assay [2] it was 2.72 µM; in assay [3] it was 3.32 µM; in assay [4], 0.403 µM; in assay [5], greater than 100 µM; in assay [6] it was 0.899 µM. The GI50 in [7] is 3.36 µM; in [8], 4.23 µM; in [9], greater than 100 µM; in assay [10], greater than 100 µM. Besides, the TGI in assay [1], in assay [2], in assay [3], in [4], in [5] and in assay [6] was greater than 100 µM throughout. Also, the TGI in assay [7], in assay [8], in assay [9] and in assay [10] was greater than 100 µM each time.
With `O=[P+](O)c1cccnc1`, the TGI in [1], in assay [2], in [3], in assay [4], in assay [5] and in assay [6] was greater than 100 µM throughout. In addition, the TGI in assay [7], in [8], in [9] and in [10] was greater than 100 µM in each case.
With `CC/C(=C(/CC)c1ccc(O)cc1)c1ccc(O)cc1`, the GI50 in [1] is 12.4 µM; in assay [2], 10.6 µM; in [3], 6.38 µM; in assay [4] it was 7.9 µM; in assay [5], 6.96 µM; in assay [6], 5.9 µM. Also, the GI50 was 4.89 µM in [7], 4.92 µM in assay [8], 14.8 µM in assay [9] and 3.64 µM in assay [10]. For the same compound, the TGI in [1] was 52.3 µM; in assay [2], 25.5 µM; in assay [3], 21.6 µM; in assay [4] it was 37.1 µM; in [5], 19.9 µM; in assay [6], 28.6 µM. Also, the TGI was determined as 20.9 µM in assay [7], 15.9 µM in assay [8], 37.6 µM in assay [9] and 12.9 µM in [10].
Turning to `O=C(c1ccccc1)c1c2n(c3c1cc(O)c1ccccc13)CCN2`, the GI50 is 2.19 µM in assay [1]; 1.85 µM in [2]; 16.2 µM in assay [3]; 2.7 µM in assay [4]; 12.1 µM in assay [5]; 2 µM in [6]. The GI50 is 5.6 µM in [7], 3.44 µM in assay [8], 23.1 µM in assay [9] and 3.08 µM in [10]. Moreover, the TGI in assay [1] came out at 4.84 µM; in assay [2] it was 3.46 µM; in assay [3], 31.3 µM; in assay [4], 7.67 µM; in [5], 27.3 µM; in assay [6] it was 4.21 µM. Moreover, the TGI in [7] came out at 17.9 µM; in [8] it was 10.9 µM; in assay [9], 75.2 µM; in assay [10] it was 8.88 µM.
In the case of `Cc1nc(-n2nc(-c3ccccc3)cc2-c2ccccc2)sc1C(/C=C/c1ccc([N+](=O)[O-])cc1)=N/NC(N)=S`, the TGI in assay [1], in [2], in [3], in assay [4], in assay [5] and in [6] was greater than 100 µM in each case. For the same compound, the TGI in assay [7] was 65.7 µM; in [8], 43.4 µM; in assay [9] it was greater than 100 µM; in assay [10] it was greater than 100 µM.
Consider `Cc1ccc(S(=O)(=O)OC2CSSCC2OS(=O)(=O)c2ccc(C)cc2)cc1` (stereo not given), for which the TGI in assay [1] was 32.9 µM; in assay [2], 31.7 µM; in assay [3], 28.5 µM; in assay [4], 26.1 µM; in [5], 30.3 µM; in [6] it was 24 µM. In addition, the TGI in assay [7] amounted to 43.2 µM; in assay [8], 26 µM; in assay [9], 28.9 µM; in assay [10] it was 28.3 µM.
`COC(=O)[C@H](C)[C@@H]1CC[C@](C)(CCC2=C(C)CCCC2(C)C)OO1`: the TGI in assay [1], in assay [2], in assay [3], in assay [4], in assay [5] and in assay [6] was greater than 25 µM each time. Besides, the TGI in assay [7], in [8], in assay [9] and in assay [10] was greater than 25 µM each time.
For the compound `NNc1ncnc2cccc(Cl)c12`, the TGI in assay [1], in assay [2], in assay [3], in [4], in [5] and in assay [6] was greater than 100 µM throughout. Also, the TGI in [7], in [8], in [9] and in [10] was greater than 100 µM in each case.
`Cn1cc(-c2ccc3nnc(C(F)(F)c4ccc5ncccc5c4)n3n2)cn1`: the GI50 in assay [1] is 53.8 µM; in assay [2], 53.4 µM; in [3] it was 28.4 µM; in [4], 66.1 µM; in assay [5], greater than 85.8 µM; in [6] it was 35.4 µM. The GI50 in assay [7] is 56.4 µM; in assay [8], 61.9 µM; in assay [9], 32.1 µM; in assay [10] it was 43.6 µM. Moreover, the TGI in assay [1], in assay [2], in assay [3], in [4], in assay [5] and in assay [6] was greater than 100 µM each time. Moreover, the TGI in assay [7], in assay [8], in assay [9] and in [10] was greater than 100 µM in each case.
For `COc1ccc2c(c1)CC1N(C)CCC13CCCCC23` (stereo not given), the TGI in assay [1], in [2], in assay [3], in [4], in assay [5] and in [6] was greater than 100 µM each time. Also, the TGI in assay [7], in [8], in assay [9] and in [10] was greater than 100 µM in each case.
For the compound `CCOC(=O)Cn1c(=O)[nH]c(=O)c2[nH]cnc21`, the TGI in assay [1], in assay [2], in assay [3], in [4], in assay [5] and in assay [6] was greater than 100 µM in each case. Moreover, the TGI in assay [7], in assay [8], in assay [9] and in [10] was greater than 100 µM each time.
